In brackets after ≈: the same amount, converted by molar mass.
Experiments:
Type in all cases: functional
[1] = tested on: Staphylococcus aureus; test: Antibacterial activity against methicillin-resistant Staphylococcus aureus after overnight incubation by micro broth dilution analysis
[2] = tested on: Staphylococcus epidermidis; test: Antibacterial activity against methicillin-resistant Staphylococcus epidermidis after overnight incubation by micro broth dilution analysis
[3] = tested on: Staphylococcus haemolyticus; test: Antibacterial activity against methicillin-resistant Staphylococcus haemolyticus after overnight incubation by micro broth dilution analysis
[4] = tested on: Staphylococcus aureus; test: Antibacterial activity against methicillin-resistant Staphylococcus aureus assessed as zone of inhibition at 50 ug/mL after 24 hrs by agar disc diffusion method; conditions: read-out: IZ
[5] = tested on: Staphylococcus aureus; test: Antibacterial activity against methicillin-resistant Staphylococcus aureus assessed as zone of inhibition at 200 ng/mL after 24 hrs by agar disc diffusion method; conditions: read-out: IZ
[6] = tested on: Staphylococcus aureus; test: Antibacterial activity against methicillin-resistant Staphylococcus aureus assessed as zone of inhibition at 400 ng/mL after 24 hrs by agar disc diffusion method; conditions: read-out: IZ
[7] = tested on: Staphylococcus aureus; test: Antibacterial activity against methicillin-resistant Staphylococcus aureus assessed as zone of inhibition at 800 ng/mL after 24 hrs by agar disc diffusion method; conditions: read-out: IZ
[8] = tested on: Staphylococcus epidermidis; test: Antibacterial activity against methicillin-resistant Staphylococcus epidermidis assessed as zone of inhibition at 20 ug/mL after 24 hrs by agar disc diffusion method; conditions: read-out: IZ
[9] = tested on: Staphylococcus haemolyticus; test: Antibacterial activity against methicillin-resistant Staphylococcus haemolyticus assessed as zone of inhibition at 50 ug/mL after 24 hrs by agar disc diffusion method; conditions: read-out: IZ

| Structure (SMILES) | MIC99 [1] [µg/mL] | MIC99 [2] [µg/mL] | MIC99 [3] [µg/mL] | zone of inhibition at 50 µg/mL [4] [mm] | zone of inhibition at 0.2 µg/mL [5] [mm] | zone of inhibition at 0.4 µg/mL [6] [mm] | zone of inhibition at 0.8 µg/mL [7] [mm] | zone of inhibition at 20 µg/mL [8] [mm] | zone of inhibition at 50 µg/mL [9] [mm] |
| --- | --- | --- | --- | --- | --- | --- | --- | --- | --- |
| COc1cc(/C=C/S(=O)(=O)F)cc(OC)c1 | 0.81 (≈ 3.29 µM) | 57.1 (≈ 232 µM) | 50 (≈ 203 µM) | 18.1 | 1.2 | 13.1 | 15.1 | 5.3 | 4.5 |
| O=S(=O)(F)/C=C/c1cccc(C(F)(F)F)c1 | 0.836 (≈ 3.29 µM) | 40.1 (≈ 158 µM) | 43.2 (≈ 170 µM) | 10.1 | 4.1 | 5.4 | 7.7 | 4.1 | 4.2 |
| O=S(=O)(F)/C=C/c1cccc2c1sc1ccccc12 | 48.2 (≈ 165 µM) | 55 (≈ 188 µM) | 66 (≈ 226 µM) | 8.1 | 3.5 | 4.4 | 4.5 | 4.1 | 4.5 |
| COc1cc(/C=C/C=C/S(=O)(=O)F)cc(OC)c1 | 61.1 (≈ 225 µM) | 57.1 (≈ 210 µM) | 56.6 (≈ 208 µM) | 16.1 | 5.2 | 7.1 | 8.5 | 4.1 | 4.2 |
| O=S(=O)(F)/C=C/c1ccc(F)cc1 | 16.1 (≈ 79 µM) | 61.1 (≈ 299 µM) | 57.3 (≈ 281 µM) | 10.1 | 3.5 | 4.1 | 4.5 | 5.2 | 4.2 |
| O=S(=O)(F)/C=C/c1ccc(O)cc1 | 16.1 (≈ 79.4 µM) | 45 (≈ 223 µM) | 57.1 (≈ 283 µM) | 10.2 | 3.2 | 4.3 | 5.2 | 4.5 | 3.5 |
| O=S(=O)(F)/C=C/c1ccsc1 | 16.6 (≈ 86.4 µM) | 66.1 (≈ 344 µM) | 48 (≈ 250 µM) | 8.2 | 3.2 | 4.2 | 4.5 | 8.5 | 4.52 |
| O=S(=O)(F)/C=C/c1cccc(F)c1 | 15.2 (≈ 74.3 µM) | 72.3 (≈ 354 µM) | 44.1 (≈ 216 µM) | 9.1 | 3.5 | 4.4 | 5.1 | 3.5 | 4.2 |
| O=S(=O)(F)/C=C/c1ccc(F)cc1F | 16.1 (≈ 72.3 µM) | 47 (≈ 212 µM) | 55.1 (≈ 248 µM) | 14.1 | 3.1 | 3.5 | 4.1 | 3.7 | 3.5 |
| O=S(=O)(F)/C=C/C=C/c1ccc(/C=C/S(=O)(=O)F)cc1 | 66.8 (≈ 209 µM) | 56 (≈ 175 µM) | 55 (≈ 172 µM) | 5.3 | – | – | – | 4.2 | 3.5 |
| CCOC(=O)c1cccc(/C=C/S(=O)(=O)F)c1 | 40.6 (≈ 157 µM) | 53 (≈ 205 µM) | 50.2 (≈ 194 µM) | 4.2 | – | – | – | 4.2 | 4.3 |
| CCc1ccc(/C=C/S(=O)(=O)F)cc1 | 45.1 (≈ 211 µM) | 56.2 (≈ 262 µM) | 60 (≈ 280 µM) | 5.1 | – | – | – | 6.1 | 3.5 |
| O=S(=O)(F)/C=C/c1cnn(-c2ccccc2)c1 | 51.2 (≈ 203 µM) | 52.3 (≈ 207 µM) | 51.1 (≈ 203 µM) | 3.1 | – | – | – | 4.3 | 3.5 |
| Cc1ccc(S(=O)(=O)n2c3ccccc3c3cc(/C=C/S(=O)(=O)F)ccc32)cc1 | 48 (≈ 112 µM) | 50.1 (≈ 117 µM) | 58 (≈ 135 µM) | 4.3 | – | – | – | 3.5 | 3.3 |
| O=S(=O)(F)/C=C/c1ccccc1O | 0.853 (≈ 4.22 µM) | 58 (≈ 287 µM) | 61 (≈ 302 µM) | 12.1 | 3.5 | 5.2 | 7.7 | 6.2 | 3.5 |
| O=S(=O)(F)/C=C/c1ccc(-c2ccccc2)cc1 | 53.2 (≈ 203 µM) | 65.1 (≈ 248 µM) | 56.1 (≈ 214 µM) | 4.3 | – | – | – | 5.1 | 3.5 |
| O=S(=O)(F)/C=C/c1ccc(I)cc1 | 48.2 (≈ 154 µM) | 50.6 (≈ 162 µM) | 47.6 (≈ 153 µM) | 5.2 | – | – | – | 5.2 | 4.4 |
| COc1ccc(Cl)cc1/C=C/S(=O)(=O)F | 51.1 (≈ 204 µM) | 40.4 (≈ 161 µM) | 47 (≈ 188 µM) | 5.1 | – | – | – | 5.2 | 5.2 |
| COc1ccc(/C=C/S(=O)(=O)F)cc1 | 48.1 (≈ 222 µM) | 51.3 (≈ 237 µM) | 68.2 (≈ 315 µM) | 52 | – | – | – | 60.4 | 6.3 |
| CC(C)(C)c1ccc(/C=C/C=C/S(=O)(=O)F)cc1 | 58.2 (≈ 217 µM) | 62.1 (≈ 232 µM) | 65.3 (≈ 243 µM) | 6.3 | – | – | – | 5.5 | 4.5 |
| O=S(=O)(F)/C=C/C=C/c1ccc2ccccc2c1 | 58 (≈ 221 µM) | 63 (≈ 240 µM) | 51 (≈ 195 µM) | 3.3 | – | – | – | 5.4 | 4.5 |
| O=S(=O)(F)/C=C/C=C/c1ccccc1 | 56.2 (≈ 265 µM) | 52 (≈ 245 µM) | 58.1 (≈ 274 µM) | 6.2 | – | – | – | 6.2 | 5.2 |
| O=S(=O)(F)/C=C/c1cccc2c1oc1ccccc12 | 17 (≈ 61.6 µM) | 67.5 (≈ 244 µM) | 47 (≈ 170 µM) | 6.3 | – | – | – | 3.5 | 3.3 |
| O=S(=O)(F)/C=C/c1cccs1 | 52 (≈ 271 µM) | 50.1 (≈ 260 µM) | 50.6 (≈ 263 µM) | 5.2 | – | – | – | 4.5 | 4.1 |
| O=S(=O)(F)/C=C/c1cccc(-c2ccccc2)c1 | 40.1 (≈ 153 µM) | 44.1 (≈ 168 µM) | 40.2 (≈ 153 µM) | 7.8 | – | – | – | 5.5 | 5.2 |
| O=S(=O)(F)/C=C/c1cc2ccccc2s1 | 55 (≈ 227 µM) | 70.2 (≈ 290 µM) | 63.1 (≈ 261 µM) | 8.2 | 4.4 | 6.3 | 8.5 | 5.2 | 4.5 |
